# Results reported in patent publication US10806747B2, “Methods for treating infection including sepsis via P2X receptor modulation” (Rutgers, The State University of New Jersey, priority 2017, dated 2020).
# What was measured:
# peritoneal macrophages [1] = experiment: Intracellular killing of S. aureus by peritoneal macrophages (CFU count); assay type: cell-based, mice; conditions: WT and P2X7R−/− macrophages; S. aureus 90 min, ATP pulse 5 min
# Procedure: (§1) FIGS. 1A through 1K show ATP augments bacterial killing in macrophages in a P2X4R-dependent fashion. […] Peritoneal macrophages from WT and P2X7R^-/- mice were infected with E. coli (FIG. 1A) or with S. aureus (FIG. 1B) for 90 minutes, which was followed by pulsing the cells with ATP for 5 minutes. Subsequently, after a 2-hour incubation with 400 ng/ml gentamicin, the macrophages were lysed and serial dilutions of their intracellular content were spread onto LB agar plates. *P<0.05; **P<0.01 vs. E. coli; n=5-6. FIG. 1C and FIG. 1D show ATP augments bacterial killing independently of adenosine. […] RNA was transcribed and quantitative PCRs were conducted. n=6. […] Killing was determined at the end of this incubation period. *P<0.05; ***P<0.001 vs. E. coli treatment; ^##P<0.01 vs. ATP/E. coli treatment; n=5-6. In FIG. 1H, macrophages were transfected with scrambled siRNA- or P2X4 siRNA, and the effect of ATP on bacterial killing determined. **P<0.01 vs. E. coli treatment; n=6. In FIG. 1I, peritoneal macrophages from WT and P2X4R^-/- mice were infected with E. coli, pulsed with ATP, incubated with gentamicin for 2 hours and then bacterial killing was determined. **P<0.01 vs. E. coli treatment; n=6. […] Data are expressed as mean±SEM. […]
# [2] = test system: human monocytic THP-1 cells; experiment: Intracellular killing of E. coli by PMA-differentiated THP-1 cells; assay type: cell-based
# Procedure: as §1
# peritoneal macrophages [3] = experiment: Intracellular killing of E. coli by peritoneal macrophages (gentamicin protection, CFU count); assay type: cell-based, murine; conditions: for effect on ATP-stimulated E. coli killing: antagonist pretreatment 30 min before 5 min ATP pulse
# Procedure: FIGS. 1A through 1K show ATP augments bacterial killing in macrophages in a P2X4R-dependent fashion. […] Peritoneal macrophages from WT and P2X7R^−/− mice were infected with E. coli (FIG. 1A) or with S. aureus (FIG. 1B) for 90 minutes, which was followed by pulsing the cells with ATP for 5 minutes. Subsequently, after a 2-hour incubation with 400 ng/ml gentamicin, the macrophages were lysed and serial dilutions of their intracellular content were spread onto LB agar plates. *P<0.05; **P<0.01 vs. E. coli; n=5-6. FIG. 1C and FIG. 1D show ATP augments bacterial killing independently of adenosine. Macrophages from WT and CD39^−/− mice were infected with E. coli, pulsed with ATP (FIG. 1C) or adenosine (FIG. 1D), and then incubated with gentamicin for 2 hours, which was followed by intracellular CFU counting. *P<0.05; **P<0.01 vs. E. coli; n=4-6. […] Peritoneal macrophages were isolated from WT mice and RNA was extracted from untreated cells. RNA was transcribed and quantitative PCRs were conducted. n=6. FIGS. 1F through 1K show P2X4Rs are responsible for the ATP-stimulated increase in bacterial killing in macrophages. Peritoneal macrophages were infected with E. coli for 90 min, pretreated with (FIG. 1F) P2X4R antagonist (5-BDBD) or (FIG. 1G) P2X7R antagonist (A438079) for 30 minutes before an ATP pulse for 5 minutes, and then incubated with gentamicin for 2 hours. Killing was determined at the end of this incubation period. *P<0.05; ***P<0.001 vs. E. coli treatment; ^##P<0.01 vs. ATP/E. coli treatment; n=5-6. In FIG. 1H, macrophages were transfected with scrambled siRNA- or P2X4 siRNA, and the effect of ATP on bacterial killing determined. **P<0.01 vs. E. coli treatment; n=6. In FIG. 1I, peritoneal macrophages from WT and P2X4R^−/− mice were infected with E. coli, pulsed with ATP, incubated with gentamicin for 2 hours and then bacterial killing was determined. **P<0.01 vs. E. coli treatment; n=6. In FIGS. 1J and 1K, phorbol 12-myristate 13-acetate (PMA)-differentiated human monocytic THP-1 cells were infected with E. coli for 90 minutes, exposed to ATP for 5 minutes and then killing was determined as described above for peritoneal macrophages (FIG. 1J). In other experiments, THP-1 cells were infected with E. coli, pretreated with 5-BDBD or vehicle for 30 minutes before a 5-minutes ATP pulse (FIG. 1K), two hours after which intracellular CFUs were determined. **P<0.01; vs. E. coli treatment; ^##P<0.01 vs. ATP/E. coli treatment. n=6-7. Data are expressed as mean±SEM. All results are representatives of three experiments.
# Naive, thioglycollate-elicited murine peritoneal macrophages were treated with E. coli (K-12 strain) at 1:15 cell:bacteria ratio in vitro and incubated for 90 minutes to allow for phagocytosis to occur. After 90 minutes, the cells were washed to remove non-phagocytosed bacteria and treated with increasing concentrations (0.1 to 3 μM) of ATP or adenosine for 5 minutes. After 5 minutes, the medium was removed and the cells were washed extensively.
# New medium was added that was supplemented with 100 μg/mL gentamicin. This allowed the maturation of the phagosome and killing of the phagocytosed bacteria. The cells were incubated for approximately 2 hours at 37° C. After incubation, the cells were washed 5 times to remove the gentamicin and were lysed. Colony forming units (CPUs) were determined after an overnight incubation on agar.
# [4] = test system: murine polymicrobial sepsis; conditions: injected ATP; cited from earlier work
# [5] = test system: sepsis by cecal ligation and puncture (CLP); experiment: CLP sepsis model: survival, bacterial load, plasma BUN; assay type: in vivo, mice; conditions: for survival: monitored 7 days, vs vehicle
# Procedure: WT and P2X4R^−/− mice were injected with 10 mg/kg ivermectin or its vehicle and subjected to CLP. The survival of mice was monitored for 7 days *P<0.05-P2X4R^−/− injected with vehicle (n=21) vs. WT injected with vehicle (n=25); ***P<0.001—WT injected with ivermectin (n=20); vs. WT injected with vehicle (n=25). In FIGS. 3B and 3C bacterial burden was determined by counting the number of CFUs on blood agar plates after serial dilution of blood and peritoneal lavage samples. Blood and lavage fluid were collected at 16 hours after CLP. *P<0.05 vs. veh (veh and 10 mg/kg ivermectin; n=10 and 9, respectively. In FIG. 3D BUN was determined from plasma of ivermectin- or vehicle-treated mice 16 hours after CLP. *P<0.05. Veh and 10 mg/kg ivermectin; n=10 and 9, respectively. FIGS. 3E and 3F show ivermectin increasing intracellular killing of E. coli in cultured macrophages. Peritoneal macrophages were infected with E. coli for 90 minutes and then pulsed with ATP for 5 minutes. ATP was then removed and the macrophages were incubated with ivermectin for 30 minutes. Thereafter the ivermectin was removed and the cells were incubated in medium containing gentamicin for another 2 hours. The cells were then lysed and serial dilutions of intracellular content were spread onto LB agar plates. *P<0.05 (n=5-6); **P<0.01 (n=5-6). Data are expressed as mean±SEM. All results are representatives of three experiments.
# From these studies, it was believed that pharmacological activation of P2X4Rs would have an effect opposite to that of inactivating these receptors genetically; that is that the pharmacological activation of P2X4Rs would be protective. To examine this, mice were injected with ivermectin, an anti-helminth drug that is a partial allosteric activator of P2X4Rs (Khakh et al. J Neurosci 1999 19:7289-7299) 90 minutes after performing CLP. […] Furthermore, ivermectin potentiated the ATP stimulation of bacterial killing in macrophages in vitro (FIGS. 3E and 3F).
# Male C57B16/J rmce were anesthetized using Nembutal, and a 2-cm midline laparotomy was performed to allow exposure of the cecum with adjoining intestine. Approximately two-thirds of the cecum was tightly ligated with a 3.0 silk suture, and the ligated part of the cecum was perforated twice (through and through) with a 20-gauge needle. […] The mice were resuscitated with 1 ml of physiological saline injected subcutaneously and returned to their cages with free access to food and water, and survival was monitored for 7 days (p<0.05). Survival curves were analyzed using two-tailed Fisher's exact test.
# Bacterial load in mice subjected to CLP was measured at 16 h after surgery. Dilutions of blood or peritoneal lavage fluid were cultured on tryptose blood agar plates, and the number of bacterial colonies was counted. […]
molecule,measurement,setting,value
"Nc1ncnc2c1ncn2[C@@H]1O[C@H](COP(=O)(O)OP(=O)(O)OP(=O)(O)O)[C@@H](O)[C@H]1O [ATP, adenosine triphosphate]",intracellular bacterial killing (S. aureus),peritoneal macrophages [1],increases intracellular bacterial killing
same,killing of E. coli,[2]; ATP 5 min,increased killing of E. coli
same,killing of E. coli,"peritoneal macrophages [3]; WT and P2X7R−/− macrophages, E. coli 90 min, ATP pulse 5 min, gentamicin 2 h",increased killing of E. coli
same,killing of E. coli,"peritoneal macrophages [3]; macrophages from P2X4R−/− mice, ATP pulse",failed to stimulate E. coli killing
same,killing of E. coli,"peritoneal macrophages [3]; macrophages from WT littermate controls, ATP pulse",dose-dependent increase in killing
same,killing of E. coli,"peritoneal macrophages [3]; macrophages lacking CD39 (CD39−/−), ATP pulse",also killed E. coli
same,stimulatory effect of ATP on E. coli killing,peritoneal macrophages [3]; macrophages with P2X4R silencing vs scrambled control,largely reversed
same,macrophage-mediated bacterial killing,[4],augments macrophage-mediated bacterial killing
O=C1CN=C(c2cccc(Br)c2)c2oc3ccccc3c2N1 [P2X4R antagonist],effect on ATP-stimulated E. coli killing,[2]; antagonist 30 min before 5 min ATP pulse,inhibited the stimulatory effect of ATP on E. coli killing
same,effect on ATP-stimulated E. coli killing,peritoneal macrophages [3],prevented the stimulatory effect of ATP on E. coli killing
Clc1cccc(-c2nnnn2Cc2cccnc2)c1Cl [P2X7R antagonist],effect on ATP-stimulated E. coli killing,peritoneal macrophages [3],not P2X7R antagonist (FIG. 1G) prevented the stimulatory effect of ATP
Nc1ncnc2c1ncn2[C@@H]1O[C@H](CO)[C@@H](O)[C@H]1O [adenosine],killing of E. coli,"peritoneal macrophages [3]; macrophages from WT and CD39−/− mice, adenosine pulse",failed to increase E. coli killing
"22,23-dihydroavermectin [ivermectin]",plasma BUN levels,"[5]; 16 hours after CLP, 10 mg/kg ivermectin vs vehicle",diminished plasma BUN levels
same,survival,"[5]; P2X4R−/− mice, 10 mg/kg ivermectin, CLP",failed to improve survival
same,survival,"[5]; WT mice, 10 mg/kg ivermectin 90 minutes after CLP",improved survival
same,bacterial burden (CFUs),"[5]; blood and peritoneal lavage, 16 hours after CLP, 10 mg/kg ivermectin vs vehicle",decreased bacteria
same,ATP stimulation of bacterial killing in macrophages,"peritoneal macrophages [3]; E. coli 90 min, ATP pulse 5 min, then ivermectin 30 min, gentamicin 2 h",potentiated
